For assay [1], the target named is T1, Gag-Pol polyprotein (Human immunodeficiency virus type 1 group M subtype B (isolate HXB2), UniProt P04585). As to the kind of experiment: 3'-P Inhibitory Assay. On the procedure:
Cleavage of a dinucleotide from each 3'-end of viral cDNA. All biological assays were performed essentially as previously described [Dayam et al., J. Med. Chem., 51:1136-1144].

Assay [2] addresses T1, Gag-Pol polyprotein. Put plainly: ST Inhibitory Assay. On the procedure:
Insertion of two newly processed 3'-viral DNA ends into the host-cell chromosome. All biological assays were performed essentially as previously described [Dayam et al., J. Med. Chem., 51:1136-1144].

SMILES strings stand for the structures. pIC50: −log10 of the molar value. Some results are limits rather than exact numbers.

For 15 molecules, IC50 results are on record in BindingDB's records for doi:10.3109/14756366.2011.604851 (Shandong University, 2012).

In general, pIC50 refers to the IC50 on a negative log10 scale, so that one unit is a factor of ten. A low value points to a high IC50. With `O=C(/C=C/c1ccc(O)c(O)c1)Nc1ccc(S(=O)(=O)Nc2ccccc2Br)cc1` [(E)-3-(3,4-Dihydroxyphenyl)-N-(4-(2-Bromophenylsulfamoyl)phenyl)acrylamide (11g)], the pIC50 at Gag-Pol polyprotein [1] is 4.96; against Gag-Pol polyprotein [2] it was 5.05.

`Cc1ccc(NS(=O)(=O)c2ccc(NC(=O)c3cc(O)c(O)c(O)c3)cc2)cc1C` [N-(4-(3,4-Dimethylphenylsulfamoyl)phenyl)galloylamide (9p)]: the pIC50 against Gag-Pol polyprotein [1] and at Gag-Pol polyprotein [2] was 5.10 in each case.

Regarding `Cc1cc(C)cc(NS(=O)(=O)c2ccc(NC(=O)/C=C/c3ccc(O)c(O)c3)cc2)c1` [(E)-3-(3,4-Dihydroxyphenyl)-N-(4-(3,5-Dimethylphenylsulfamoyl)phenyl)acrylamide (11k)], the pIC50 against Gag-Pol polyprotein [1] is 5.30; at Gag-Pol polyprotein [2], 5.40.

Turning to `O=C(/C=C/c1ccc(O)c(O)c1)Nc1ccc(S(=O)(=O)Nc2cccc(Cl)c2F)cc1` [(E)-3-(3,4-Dihydroxyphenyl)-N-(4-(3-chloro-2-fluorophenylsulfamoyl)phenyl)acrylamide (11l)], the results for the pIC50 against Gag-Pol polyprotein [1] and at Gag-Pol polyprotein [2] were 4.66 and 4.85, respectively.

For `O=C(Nc1ccc(S(=O)(=O)Nc2cccc(Br)c2)cc1)c1cc(O)c(O)c(O)c1` [N-(4-(3-Bromophenylsulfamoyl)phenyl)galloylamide (9f)], the negative logarithm of the IC50 (pIC50) against Gag-Pol polyprotein [1] was 5.70; at Gag-Pol polyprotein [2], 6.15.

`COc1ccc(NS(=O)(=O)c2ccc(NC(=O)c3cc(O)c(O)c(O)c3)cc2)cc1` [N-(4-(4-Methoxylphenylsulfamoyl)phenyl)galloylamide (9q)]: the pIC50 at Gag-Pol polyprotein [1] was 5.30; on Gag-Pol polyprotein [2] it was 5.35.

Take `CC(=O)Oc1ccc(/C=C/C(=O)Nc2ccc(S(=O)(=O)Nc3cc(C)cc(C)c3)cc2)cc1OC(C)=O` [(E)-3-(3,4-Diacetoxyphenyl)-N-(4-(3,5-Dimethylphenylsulfamoyl)phenyl)acrylamide (10k)]: the values for the pIC50 against Gag-Pol polyprotein [1] and on Gag-Pol polyprotein [2] were 4.10 and 4.80, respectively.

As for `CC(=O)Oc1cc(C(=O)Nc2ccc(S(=O)(=O)Nc3ccccc3C)cc2)cc(OC(C)=O)c1OC(C)=O` [N-(4-(2-Methylphenylsulfamoyl)phenyl)-3,4,5-triacetoxybenzamide (8s)], the results for the negative logarithm of the IC50 (pIC50) against Gag-Pol polyprotein [1] and at Gag-Pol polyprotein [2] were less than 5.00 and 5.80, respectively.

For `CC(=O)Oc1ccc(/C=C/C(=O)Nc2ccc(S(=O)(=O)Nc3ccc(Cl)c(Cl)c3)cc2)cc1OC(C)=O` [(E)-3-(3,4-Diacetoxyphenyl)-N-(4-(3,4-Dichlorophenylsulfamoyl)phenyl)acrylamide (10h)], the pIC50 is 4.12 at Gag-Pol polyprotein [1] and 5.15 on Gag-Pol polyprotein [2].

In the case of `O=C(Nc1ccc(S(=O)(=O)Nc2ccc([N+](=O)[O-])cc2)cc1)c1cc(O)c(O)c(O)c1` [N-(4-(4-Nitrophenylsulfamoyl)phenyl)galloylamide (9r)], the pIC50 is 5.40 against Gag-Pol polyprotein [1] and 5.52 against Gag-Pol polyprotein [2].

Turning to `O=C(Nc1ccc(S(=O)(=O)Nc2ccc(Br)cc2)cc1)c1cc(O)c(O)c(O)c1` [N-(4-(4-Bromophenylsulfamoyl)phenyl)galloylamide (9e)], the results for the negative-log IC50 (pIC50) on Gag-Pol polyprotein [1] and against Gag-Pol polyprotein [2] were 5.52 and 6.15, respectively.

Consider `O=C(/C=C/c1ccc(O)c(O)c1)Nc1ccc(S(=O)(=O)Nc2cccc(Br)c2)cc1` [(E)-3-(3,4-Dihydroxyphenyl)-N-(4-(3-Bromophenylsulfamoyl)phenyl)acrylamide (11f)], for which the pIC50 against Gag-Pol polyprotein [1] is 4.31; against Gag-Pol polyprotein [2], 4.66.

Turning to `O=C(/C=C/c1ccc(O)c(O)c1)Nc1ccc(S(=O)(=O)Nc2ccc(F)c(F)c2)cc1` [(E)-3-(3,4-Dihydroxyphenyl)-N-(4-(3,4-Difluorophenylsulfamoyl)phenyl)acrylamide (11b)], the pIC50 on Gag-Pol polyprotein [1] was 4.96; against Gag-Pol polyprotein [2] it was 5.22.

Regarding `CCCCc1ccc(NS(=O)(=O)c2ccc(NC(=O)/C=C/c3ccc(O)c(O)c3)cc2)cc1` [(E)-3-(3,4-Dihydroxyphenyl)-N-(4-(4-Butylphenylsulfamoyl)phenyl)acrylamide (11i)], the values for the pIC50 against Gag-Pol polyprotein [1] and against Gag-Pol polyprotein [2] were 4.60 and 5.15, respectively.

Consider `O=C(/C=C/c1ccc(O)c(O)c1)Nc1ccc(S(=O)(=O)Nc2ccc(F)cc2)cc1` [(E)-3-(3,4-Dihydroxyphenyl)-N-(4-(4-Fluorophenylsulfamoyl)phenyl)acrylamide (11a)], for which the pIC50 was 5.10 against Gag-Pol polyprotein [1] and 5.30 on Gag-Pol polyprotein [2].
